How the values were obtained:
Assay type in all cases: in vivo
[1] = system: sunflower (common oilseed sunflower, Helianthus annuus); experiment: Test B pre-/postemergence plant response; conditions: Preemergence
Procedure, shortened: (§1)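 Visual injury, 0–100 scale (100 = complete control), rated against controls after 13 to 15 days in greenhouse. Pre-emergence: seeds in loam/sand soil, treated at planting. Post-emergence: 1- to 4-leaf plants (2 to 18 cm) in peat/vermiculite medium. Compounds formulated in non-phytotoxic solvent with surfactant.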

[2] = system: galium (catchweed bedstraw, Galium aparine); experiment: Test B pre-/postemergence plant response; conditions: Preemergence
Procedure, shortened: as §1

[3] = system: nightshade (eastern black nightshade, Solanum ptycanthum); experiment: Test B pre-/postemergence plant response; conditions: Preemergence
Procedure, shortened: as §1

[4] = system: windgrass (Apera spica-venti); experiment: Test B postemergence plant response
Procedure, shortened: (§2)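 Visual ratings from 0 (no effect) to 100 (complete control), made against controls 13–15 days after treatment, kept in a greenhouse. Compounds were applied postemergence to potted plants at the 1- to 4-leaf stage (2–18 cm).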

[5] = system: chickweed (Stellaria media); experiment: Test B postemergence plant response
Procedure, shortened: as §2

[6] = system: winter barley (Hordeum vulgare); experiment: Test B postemergence plant response
Procedure, shortened: as §2

[7] = system: canarygrass (Phalaris minor); experiment: Test B postemergence plant response
Procedure, shortened: as §2

[8] = system: velvetleaf (Abutilon theophrasti); experiment: Test A pre-/postemergence plant response
Procedure, shortened: (§3)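 Seeds planted in loam soil/sand blend; test chemicals in non-phytotoxic solvent mixture with surfactant applied as directed soil spray preemergence and, concurrently, postemergence to plants 2–10 cm tall at one- to two-leaf stage. Greenhouse ~10 days; visual injury vs untreated controls, 0 (no effect) to 100 (complete control).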

[9] = system: wheat (Triticum aestivum); experiment: Test A pre-/postemergence plant response
Procedure, shortened: as §3

corn (Zea mays) = experiment: Test A pre-/postemergence plant response
Procedure, shortened: as §3

[10] = system: giant foxtail (Setaria faberii); experiment: Test A pre-/postemergence plant response
Procedure, shortened: as §3

[11] = system: barnyardgrass (Echinochloa crus-galli); experiment: Test A pre-/postemergence plant response
Procedure, shortened: as §3

[12] = system: large crabgrass (Digitaria sanguinalis); experiment: Test A pre-/postemergence plant response
Procedure, shortened: as §3

[13] = 31 g ai/ha, scale 0 to 100 (0 no effect, 100 complete control)
[14] = 62 g ai/ha, scale 0 to 100, 0 no effect, 100 complete control
[15] = 125 g ai/ha, scale 0 to 100, 0 no effect, 100 complete control
[16] = 31 g ai/ha, postemergence, scale 0 to 100, 0 is no effect, 100 is complete control
[17] = Postemergence, 62 g ai/ha, scale 0 (no effect) to 100 (complete control), 13 to 15 days
[18] = Postemergence, 125 g ai/ha, visual rating after 13 to 15 days, scale 0 (no effect) to 100 (complete control)
[19] = Postemergence, 250 g ai/ha, scale 0 to 100 (0 no effect, 100 complete control)
[20] = Postemergence, 125 g ai/ha, visual injury, 0 to 100 scale (0 no effect, 100 complete control), approx. ten days
[21] = Postemergence, 500 g ai/ha, 0 to 100 scale, 0 = no effect, 100 = complete control, approx. ten days
[22] = Preemergence, 125 g ai/ha, 0 to 100 scale, 0 = no effect, 100 = complete control
[23] = Preemergence, 500 g ai/ha, visual injury, 0 to 100 scale (0 no effect, 100 complete control), approx. ten days

For `Cc1ccc(Cl)cc1-n1c(-c2ccccc2)ncc(C(=O)C2=C(O)CCCC2=O)c1=O` [Compound 52], the “Plant response rating, Sunflower” value ([1]; 250 g ai/ha, 0 to 100 scale) was 75, the “Plant response rating, Sunflower” value [1, 13] was 10 and the “Plant response rating, Sunflower” value [1, 14] was 10. The “Plant response rating, Sunflower” value [1, 15] was 70, the “Plant response rating, Galium” value ([2]; 250 g ai/ha, 0 to 100 scale) was 95 and the “Plant response rating, Galium” value [2, 13] was 0. For the same compound, the “Plant response rating, Galium” value [2, 14] was 0, the “Plant response rating, Galium” value [2, 15] was 70 and the “Plant response rating, Nightshade” value ([3]; 250 g ai/ha, 0 to 100 scale) was 100. The “Plant response rating, Nightshade” value [3, 13] was 90, the “Plant response rating, Nightshade” value [3, 14] was 95 and the “Plant response rating, Nightshade” value [3, 15] was 98. The “Plant response rating, Windgrass” value [4, 16] was 60, the “Plant response rating, Windgrass” value [4, 17] was 80 and the “Plant response rating, Windgrass” value [4, 18] was 90. For the same compound, the “Plant response rating, Windgrass” value [4, 19] was 100, the “Plant response rating, Chickweed” value [5, 16] was 95 and the “Plant response rating, Chickweed” value [5, 17] was 95. For the same compound, the “Plant response rating, Chickweed” value [5, 18] was 95, the “Plant response rating, Chickweed” value [5, 19] was 98 and the “Plant response rating, Barley” value [6, 16] was 0. The “Plant response rating, Barley” value [6, 17] was 0, the “Plant response rating, Barley” value [6, 18] was 25 and the “Plant response rating, Barley” value [6, 19] was 25. For the same compound, the “Plant response rating, Canarygrass” value [7, 16] was 0, the “Plant response rating, Canarygrass” value [7, 17] was 50 and the “Plant response rating, Canarygrass” value [7, 18] was 65. The “Plant response rating, Canarygrass” value [7, 19] was 85, the “Velvetleaf plant response rating” value [8, 20] was 100 and the “Plant response rating, Velvetleaf” value [8, 21] was 100. For the same compound, the “Plant response rating, Velvetleaf” value [8, 22] was 100, the “Plant response rating, Velvetleaf” value [8, 23] was 100 and the “Wheat plant response rating” value [9, 20] was 0. The “Plant response rating, Wheat” value [9, 21] was 40, the “Plant response rating, Wheat” value [9, 22] was 0 and the “Plant response rating, Wheat” value [9, 23] was 0. The “Corn plant response rating” value (corn (Zea mays); [20]) was 0, the “Plant response rating, Corn” value (corn (Zea mays); [21]) was 70 and the “Plant response rating, Corn” value (corn (Zea mays); [22]) was 0. The “Plant response rating, Corn” value (corn (Zea mays); [23]) was 10, the “Foxtail, Giant plant response rating” value [10, 20] was 90 and the “Plant response rating, Foxtail, Giant” value [10, 21] was 100. For the same compound, the “Plant response rating, Foxtail, Giant” value [10, 22] was 80, the “Plant response rating, Foxtail, Giant” value [10, 23] was 100 and the “Barnyardgrass plant response rating” value [11, 20] was 90. The “Plant response rating, Barnyardgrass” value [11, 21] was 90, the “Plant response rating, Barnyardgrass” value [11, 22] was 40 and the “Plant response rating, Barnyardgrass” value [11, 23] was 100. The “Crabgrass, Large plant response rating” value [12, 20] was 90, the “Plant response rating, Crabgrass, Large” value [12, 21] was 100 and the “Plant response rating, Crabgrass, Large” value [12, 22] was 90. For the same compound, the “Plant response rating, Crabgrass, Large” value [12, 23] was 100.
In the case of `Cc1cccc(-n2c(-c3ccccc3)ncc(C(=O)C3=C(O)CCCC3=O)c2=O)c1F` [Compound 58], the “Plant response rating, Sunflower” value [1, 13] is reported as 0, the “Plant response rating, Sunflower” value [1, 14] is reported as 55 and the “Plant response rating, Sunflower” value [1, 15] is reported as 65. For the same compound, the “Plant response rating, Galium” value ([2]; 250 g ai/ha, 0 to 100 scale) was 80, the “Plant response rating, Galium” value [2, 13] was 0 and the “Plant response rating, Galium” value [2, 14] was 0. The “Plant response rating, Galium” value [2, 15] was 30, the “Plant response rating, Nightshade” value [3, 13] was 90 and the “Plant response rating, Nightshade” value [3, 14] was 98. For the same compound, the “Plant response rating, Nightshade” value [3, 15] was 98, the “Plant response rating, Windgrass” value [4, 16] was 35 and the “Plant response rating, Windgrass” value [4, 17] was 50. The “Plant response rating, Windgrass” value [4, 18] was 60, the “Plant response rating, Windgrass” value [4, 19] was 70 and the “Plant response rating, Chickweed” value [5, 16] was 70. The “Plant response rating, Chickweed” value [5, 17] was 80, the “Plant response rating, Chickweed” value [5, 18] was 90 and the “Plant response rating, Chickweed” value [5, 19] was 90. The “Plant response rating, Barley” value [6, 16] was 5, the “Plant response rating, Barley” value [6, 17] was 5 and the “Plant response rating, Barley” value [6, 18] was 5. For the same compound, the “Plant response rating, Barley” value [6, 19] was 10, the “Plant response rating, Canarygrass” value [7, 16] was 60 and the “Plant response rating, Canarygrass” value [7, 17] was 60. For the same compound, the “Plant response rating, Canarygrass” value [7, 18] was 80, the “Plant response rating, Canarygrass” value [7, 19] was 85 and the “Velvetleaf plant response rating” value [8, 20] was 100. For the same compound, the “Plant response rating, Velvetleaf” value [8, 21] was 100, the “Plant response rating, Velvetleaf” value [8, 22] was 70 and the “Plant response rating, Velvetleaf” value [8, 23] was 100. For the same compound, the “Wheat plant response rating” value [9, 20] was 0, the “Plant response rating, Wheat” value [9, 21] was 0 and the “Plant response rating, Wheat” value [9, 22] was 0. For the same compound, the “Plant response rating, Wheat” value [9, 23] was 0, the “Corn plant response rating” value (corn (Zea mays); [20]) was 0 and the “Plant response rating, Corn” value (corn (Zea mays); [21]) was 20. For the same compound, the “Plant response rating, Corn” value (corn (Zea mays); [22]) was 0, the “Plant response rating, Corn” value (corn (Zea mays); [23]) was 0 and the “Foxtail, Giant plant response rating” value [10, 20] was 70. The “Plant response rating, Foxtail, Giant” value [10, 21] was 90, the “Plant response rating, Foxtail, Giant” value [10, 22] was 50 and the “Plant response rating, Foxtail, Giant” value [10, 23] was 80. For the same compound, the “Barnyardgrass plant response rating” value [11, 20] was 50, the “Plant response rating, Barnyardgrass” value [11, 21] was 90 and the “Plant response rating, Barnyardgrass” value [11, 22] was 30. The “Plant response rating, Barnyardgrass” value [11, 23] was 90, the “Crabgrass, Large plant response rating” value [12, 20] was 80 and the “Plant response rating, Crabgrass, Large” value [12, 21] was 90. The “Plant response rating, Crabgrass, Large” value [12, 22] was 70 and the “Plant response rating, Crabgrass, Large” value [12, 23] was 90.
For `CCCCc1ncc(C(=O)C2=C(O)CCCC2=O)c(=O)n1-c1ccccc1C` [Compound 62], the “Plant response rating, Sunflower” value [1, 13] was 0, the “Plant response rating, Sunflower” value [1, 14] was 10 and the “Plant response rating, Sunflower” value [1, 15] was 10. The “Plant response rating, Galium” value ([2]; 250 g ai/ha, 0 to 100 scale) was 0, the “Plant response rating, Galium” value [2, 13] was 0 and the “Plant response rating, Galium” value [2, 14] was 0. For the same compound, the “Plant response rating, Galium” value [2, 15] was 0, the “Plant response rating, Nightshade” value [3, 13] was 10 and the “Plant response rating, Nightshade” value [3, 14] was 95. For the same compound, the “Plant response rating, Nightshade” value [3, 15] was 98, the “Plant response rating, Windgrass” value [4, 16] was 30 and the “Plant response rating, Windgrass” value [4, 17] was 35. For the same compound, the “Plant response rating, Windgrass” value [4, 18] was 35, the “Plant response rating, Windgrass” value [4, 19] was 50 and the “Plant response rating, Chickweed” value [5, 16] was 70. For the same compound, the “Plant response rating, Chickweed” value [5, 17] was 70, the “Plant response rating, Chickweed” value [5, 18] was 75 and the “Plant response rating, Chickweed” value [5, 19] was 80. The “Plant response rating, Barley” value [6, 16] was 0, the “Plant response rating, Barley” value [6, 17] was 5 and the “Plant response rating, Barley” value [6, 18] was 5. For the same compound, the “Plant response rating, Barley” value [6, 19] was 30, the “Plant response rating, Canarygrass” value [7, 16] was 0 and the “Plant response rating, Canarygrass” value [7, 17] was 0. The “Plant response rating, Canarygrass” value [7, 18] was 0, the “Plant response rating, Canarygrass” value [7, 19] was 5 and the “Velvetleaf plant response rating” value [8, 20] was 100. For the same compound, the “Plant response rating, Velvetleaf” value [8, 21] was 100, the “Plant response rating, Velvetleaf” value [8, 22] was 70 and the “Plant response rating, Velvetleaf” value [8, 23] was 90. For the same compound, the “Wheat plant response rating” value [9, 20] was 0, the “Plant response rating, Wheat” value [9, 21] was 20 and the “Plant response rating, Wheat” value [9, 22] was 0. For the same compound, the “Plant response rating, Wheat” value [9, 23] was 10, the “Corn plant response rating” value (corn (Zea mays); [20]) was 30 and the “Plant response rating, Corn” value (corn (Zea mays); [21]) was 70. For the same compound, the “Plant response rating, Corn” value (corn (Zea mays); [22]) was 0, the “Plant response rating, Corn” value (corn (Zea mays); [23]) was 20 and the “Foxtail, Giant plant response rating” value [10, 20] was 70. For the same compound, the “Plant response rating, Foxtail, Giant” value [10, 21] was 90, the “Plant response rating, Foxtail, Giant” value [10, 22] was 60 and the “Plant response rating, Foxtail, Giant” value [10, 23] was 70. For the same compound, the “Barnyardgrass plant response rating” value [11, 20] was 80, the “Plant response rating, Barnyardgrass” value [11, 21] was 90 and the “Plant response rating, Barnyardgrass” value [11, 22] was 10. For the same compound, the “Plant response rating, Barnyardgrass” value [11, 23] was 90, the “Crabgrass, Large plant response rating” value [12, 20] was 70 and the “Plant response rating, Crabgrass, Large” value [12, 21] was 90. For the same compound, the “Plant response rating, Crabgrass, Large” value [12, 22] was 60 and the “Plant response rating, Crabgrass, Large” value [12, 23] was 90.

From patent US8952024B2, “Herbicidal pyrimidone derivatives” (E I du Pont de Nemours and Company, priority 2009, dated 2015)
